Results reported in US20040197416A1, “Nanocapsules containing a steroid for cosmetic compositions” (priority 2001, published 2004).

Experiments:
skin = settings: rats; cited from earlier work
fibroblasts = settings: cited from earlier work
human keratinocytes = settings: cited from earlier work
[1] = Solubility of DHEA in various oily solvents (excess DHEA, supernatant analysed by HPLC); assay type: physicochemical; settings: for RT solubility: room temperature (25° C.), after 24 hours; for solubility of DHEA: comparative
Description: The solubility measurement was performed in the following manner. DHEA was dispersed, in excess, in the solvent under consideration, and preheated to 60° C. This temperature was maintained for one hour with stirring using a magnetic bar. The suspension was then cooled to room temperature (RT, 25° C.). After 24 hours, the suspension was centrifuged to remove the undissolved DHEA crystals. The supernatant was taken up and the absence of DHEA crystals was checked by cross-polarized optical microscopy. This supernatant was then analysed by HPLC. It is considered that the amount of DHEA detected corresponds to its maximum solubility in the solvent under consideration.

| SMILES | elastin and collagen content of the skin (skin) | thickness of the dermis (skin) | proliferation of fibroblasts (fibroblasts) | viability of human keratinocytes (human keratinocytes) | RT solubility ([1]; DHEA in Capric/caprylic triglycerides) | RT solubility ([1]; DHEA in Isopropyl palmitate) | RT solubility ([1]; DHEA in Isostearyl neopentanoate) | RT solubility ([1]; DHEA in Jojoba oil) | RT solubility ([1]; DHEA in Octyl palmitate) | RT solubility ([1]; DHEA in PPG-15 stearyl ether) | RT solubility ([1]; DHEA in Sesame oil) | RT solubility ([1]; DHEA in α-Tocopherol) | solubility of DHEA ([1]; in cetearyl isononanoate) | solubility of DHEA ([1]; in cyclopentasiloxane) | solubility of DHEA ([1]; in liquid paraffin) | solubility of DHEA ([1]; in polydimethylsiloxane (200-350 cs)) | solubility of DHEA ([1]; in squalane) |
| --- | --- | --- | --- | --- | --- | --- | --- | --- | --- | --- | --- | --- | --- | --- | --- | --- | --- |
| C[C@]12CC[C@H](O)CC1=C[C@@H](O)[C@@H]1[C@@H]2CC[C@]2(C)C(=O)CC[C@@H]12 [7α-hydroxy DHEA] | increases | increases | increase | increase |  |  |  |  |  |  |  |  |  |  |  |  |  |
| C[C@]12CC[C@H](O)CC1=CC[C@@H]1[C@@H]2CC[C@]2(C)C(=O)CC[C@@H]12 [DHEA, dehydroepiandrosterone] |  |  |  |  | 1.77% | 1.37% | 1.30% | 1.10% | 1% | 2.68% | 1.40% | 1.65% | 0.83% | 0.04% | 0% | 0.17% | 0.10% |
